Experimental findings from PMC7723023, “Antimicrobial, anti-cancer, anti-filarial and anti-inflammatory activities of Cowabenzophenone A extracted from the endophytic fungus Aspergillus terreus isolated from a mangrove plant Bruguiera gymnorrhyza” (Mycology, 2019) are described below.

One may read the IC50 as the midpoint of a concentration-inhibition curve. A high value points to a need for much substance.

The assay has as its target α-glucosidase. Put plainly: α-glucosidase inhibition (assay details and enzyme source not described). It is filed as biochemical.

In the case of `C=C(C)C1CC23C(=O)C4(C/C=C(\C)CCC=C(C)C)CC(CC2C1(C)C)C(C)(C)C(C(=O)c1ccccc1)(C4=O)C3=O` (stereo not shown) [Cowabenzophenone A], the concentration for half-maximal inhibition (IC50) came out at 7.8 ± 0.5 µM.
